From ChEMBL document CHEMBL6078630, “Design, synthesis, and bioactivity investigation of novel cyclic lipopeptide antibiotics targeting top-priority multidrug-resistant gram-negative bacteria” (Eur J Med Chem, 2024) come the findings set out here.

In brackets after ≈: the same amount, converted by molar mass. Bridge positions count the residues as written; N and C are the ends. Square brackets hold non-standard residues; d marks the D form. Peptide text beside a SMILES is read from it. * marks the point of attachment. X1 = CC[C@H](C)CCCCC(=O)*; Dab = NCC[C@H](N)C(=O)O

What all share (assay type): functional
The test system of assay [1] is Acinetobacter baumannii. Description: Antibacterial activity against carbapenem-sensitive Acinetobacter baumannii clinical isolate 19-1 assessed as inhibition of bacterial growth incubated for 16 to 20 hrs by CLSI protocol based broth microdilution method. Conditions: time 16-20 hrs. For orientation: Broth dilution looks for growth in wells or tubes with falling amounts of substance.

Assay [2] relates to Pseudomonas aeruginosa. The assay can be described thus: Antibacterial activity against Pseudomonas aeruginosa ATCC 27853 assessed as inhibition of bacterial growth incubated for 16 to 20 hrs by CLSI protocol based broth microdilution method. Conditions: time 16-20 hrs.
The test system of assay [3] is Klebsiella pneumoniae. The assay can be described thus: Antibacterial activity against carbapenem-resistant Klebsiella pneumoniae clinical isolate ets77 assessed as inhibition of bacterial growth incubated for 24 hrs by CLSI protocol based broth microdilution method.
For assay [4], the system named is Pseudomonas aeruginosa. Description: Antibacterial activity against carbapenem-resistant Pseudomonas aeruginosa clinical isolate ets33 assessed as inhibition of bacterial growth incubated for 24 hrs by CLSI protocol based broth microdilution method.
Assay [5] has as its system Klebsiella pneumoniae. The assay can be described thus: Antibacterial activity against carbapenem-resistant Klebsiella pneumoniae clinical isolate ets75 assessed as inhibition of bacterial growth incubated for 24 hrs by CLSI protocol based broth microdilution method.
Assay [6] relates to Pseudomonas aeruginosa. Description: Antibacterial activity against carbapenem-resistant Pseudomonas aeruginosa clinical isolate ets84 assessed as inhibition of bacterial growth incubated for 24 hrs by CLSI protocol based broth microdilution method.
Assay [7] concerns Klebsiella pneumoniae. Description: Antibacterial activity against carbapenem-resistant Klebsiella pneumoniae clinical isolate ets45 assessed as inhibition of bacterial growth incubated for 24 hrs by CLSI protocol based broth microdilution method.
Assay [8] relates to Klebsiella pneumoniae. Description: Antibacterial activity against carbapenem-resistant Klebsiella pneumoniae clinical isolate ets40 assessed as inhibition of bacterial growth incubated for 24 hrs by CLSI protocol based broth microdilution method.
Assay [9] concerns Acinetobacter baumannii. Description: Antibacterial activity against Acinetobacter baumannii NCTC 13304 (OXA-27) assessed as inhibition of bacterial growth incubated for 16 to 20 hrs by CLSI protocol based broth microdilution method. Conditions: time 16-20 hrs.
Assay [10] relates to Escherichia coli. The assay can be described thus: Antibacterial activity against carbapenem-resistant Escherichia coli clinical isolate 231112E006B assessed as inhibition of bacterial growth incubated for 24 hrs by CLSI protocol based broth microdilution method.
The subject of assay [11] is Klebsiella pneumoniae. Description: Antibacterial activity against carbapenem-resistant Klebsiella pneumoniae clinical isolate KPN+19-15 infected in ICR mouse model assessed as survival rate at 4 mg/kg, iv administered at 1 and 6 hrs post-infection and measured after 7 days relative to control. Conditions: 168 h, time 7 day.
Assay [12] deals with Klebsiella pneumoniae. The assay can be described thus: Antibacterial activity against carbapenem-resistant Klebsiella pneumoniae clinical isolate KPN+19-15 assessed as inhibition of bacterial growth incubated for 16 to 20 hrs by CLSI protocol based broth microdilution method. Conditions: time 16-20 hrs.
Assay [13] concerns Pseudomonas aeruginosa. The assay can be described thus: Antibacterial activity against carbapenem-resistant Pseudomonas aeruginosa clinical isolate ets38 assessed as inhibition of bacterial growth incubated for 24 hrs by CLSI protocol based broth microdilution method.
The subject of assay [14] is Escherichia coli. Description: Antibacterial activity against Escherichia coli ATCC BAA-2523 assessed as inhibition of bacterial growth incubated for 16 to 20 hrs by CLSI protocol based broth microdilution method. Conditions: time 16-20 hrs.
Assay [15] deals with Pseudomonas aeruginosa. The assay can be described thus: Antibacterial activity against carbapenem-resistant Pseudomonas aeruginosa clinical isolate ets83 assessed as inhibition of bacterial growth incubated for 24 hrs by CLSI protocol based broth microdilution method.
Assay [16] relates to Pseudomonas aeruginosa. Description: Antibacterial activity against carbapenem-resistant Pseudomonas aeruginosa clinical isolate ets49 assessed as inhibition of bacterial growth incubated for 24 hrs by CLSI protocol based broth microdilution method.
The subject of assay [17] is Pseudomonas aeruginosa. The assay can be described thus: Antibacterial activity against carbapenem-resistant Pseudomonas aeruginosa clinical isolate ets6 assessed as inhibition of bacterial growth incubated for 24 hrs by CLSI protocol based broth microdilution method.
Assay [18] has as its system Pseudomonas aeruginosa. Description: Antibacterial activity against carbapenem-resistant Pseudomonas aeruginosa clinical isolate ets22 assessed as inhibition of bacterial growth incubated for 24 hrs by CLSI protocol based broth microdilution method.
For assay [19], the system named is Klebsiella pneumoniae. Description: Antibacterial activity against carbapenem-resistant Klebsiella pneumoniae clinical isolate ets26 assessed as inhibition of bacterial growth incubated for 24 hrs by CLSI protocol based broth microdilution method.
Assay [20] concerns Klebsiella pneumoniae. Description: Antibacterial activity against carbapenem-resistant Klebsiella pneumoniae clinical isolate ets74 assessed as inhibition of bacterial growth incubated for 24 hrs by CLSI protocol based broth microdilution method.
Assay [21] deals with Pseudomonas aeruginosa. The assay can be described thus: Antibacterial activity against carbapenem-resistant Pseudomonas aeruginosa clinical isolate ets15 assessed as inhibition of bacterial growth incubated for 24 hrs by CLSI protocol based broth microdilution method.
Assay [22] has as its system Acinetobacter baumannii. Description: Antibacterial activity against carbapenem-resistant Acinetobacter baumannii clinical isolate ets30 assessed as inhibition of bacterial growth incubated for 24 hrs by CLSI protocol based broth microdilution method.
The test system of assay [23] is Klebsiella pneumoniae. Description: Antibacterial activity against carbapenem-resistant Klebsiella pneumoniae ATCC BAA-1705 assessed as inhibition of bacterial growth incubated for 16 to 20 hrs by CLSI protocol based broth microdilution method. Conditions: time 16-20 hrs.
Assay [24] deals with Escherichia coli. Description: Antibacterial activity against carbapenem-resistant Escherichia coli clinical isolate 231016w014 assessed as inhibition of bacterial growth incubated for 24 hrs by CLSI protocol based broth microdilution method.
Assay [25] deals with Pseudomonas aeruginosa. Description: Antibacterial activity against Pseudomonas aeruginosa ATCC 27853 infected in ICR mouse model infected in ICR mouse model assessed as survival rate at 2 mg/kg, iv administered at 1 and 6 hrs post-infection and measured after 7 days relative to control. Conditions: ATCC 27853, 168 h, time 7 day.
Assay [26] has as its system Acinetobacter baumannii. The assay can be described thus: Antibacterial activity against carbapenem-resistant Acinetobacter baumannii clinical isolate ets178 assessed as inhibition of bacterial growth incubated for 24 hrs by CLSI protocol based broth microdilution method.
Assay [27] deals with Pseudomonas aeruginosa. Description: Antibacterial activity against carbapenem-resistant Pseudomonas aeruginosa clinical isolate ets85 assessed as inhibition of bacterial growth incubated for 24 hrs by CLSI protocol based broth microdilution method.
Assay [28] has as its system Escherichia coli. Description: Antibacterial activity against carbapenem-resistant Escherichia coli clinical isolate 231109W005 assessed as inhibition of bacterial growth incubated for 24 hrs by CLSI protocol based broth microdilution method.
In assay [29] the test system is Acinetobacter baumannii. Description: Antibacterial activity against carbapenem-resistant Acinetobacter baumannii clinical isolate ets171 assessed as inhibition of bacterial growth incubated for 24 hrs by CLSI protocol based broth microdilution method.
In assay [30] the test system is Pseudomonas aeruginosa. Description: Antibacterial activity against carbapenem-resistant Pseudomonas aeruginosa clinical isolate ets104 assessed as inhibition of bacterial growth incubated for 24 hrs by CLSI protocol based broth microdilution method.
Assay [31] relates to Pseudomonas aeruginosa. The assay can be described thus: Antibacterial activity against carbapenem-resistant Pseudomonas aeruginosa clinical isolate ets55 assessed as inhibition of bacterial growth incubated for 24 hrs by CLSI protocol based broth microdilution method.
The test system of assay [32] is Acinetobacter baumannii. The assay can be described thus: Antibacterial activity against carbapenem-resistant Acinetobacter baumannii clinical isolate ets104 assessed as inhibition of bacterial growth incubated for 24 hrs by CLSI protocol based broth microdilution method.
In assay [33] the test system is Acinetobacter baumannii. The assay can be described thus: Antibacterial activity against carbapenem-resistant Acinetobacter baumannii clinical isolate ets123 assessed as inhibition of bacterial growth incubated for 24 hrs by CLSI protocol based broth microdilution method.
Assay [34] concerns Klebsiella pneumoniae. Description: Antibacterial activity against carbapenem-resistant Klebsiella pneumoniae clinical isolate ets78 assessed as inhibition of bacterial growth incubated for 24 hrs by CLSI protocol based broth microdilution method.
The subject of assay [35] is Klebsiella pneumoniae. Description: Antibacterial activity against carbapenem-resistant Klebsiella pneumoniae clinical isolate KPN+19-15 infected in ICR mouse model administered intravenously with compound at 1 and 6 hrs post-infection and measured after 7 days. Conditions: 168 h, route iv, time 7 day.
Assay [36] concerns Pseudomonas aeruginosa. The assay can be described thus: Antibacterial activity against carbapenem-resistant Pseudomonas aeruginosa clinical isolate 19-3 assessed as inhibition of bacterial growth incubated for 16 to 20 hrs by CLSI protocol based broth microdilution method. Conditions: time 16-20 hrs.
The subject of assay [37] is Pseudomonas aeruginosa. The assay can be described thus: Antibacterial activity against carbapenem-resistant Pseudomonas aeruginosa clinical isolate ets5 assessed as inhibition of bacterial growth incubated for 24 hrs by CLSI protocol based broth microdilution method.
Assay [38] deals with Escherichia coli. Description: Antibacterial activity against carbapenem-resistant Escherichia coli ATCC BAA-2340 assessed as inhibition of bacterial growth incubated for 16 to 20 hrs by CLSI protocol based broth microdilution method. Conditions: time 16-20 hrs.
The subject of assay [39] is Klebsiella pneumoniae. Description: Antibacterial activity against carbapenem-resistant Klebsiella pneumoniae clinical isolate ets80 assessed as inhibition of bacterial growth incubated for 24 hrs by CLSI protocol based broth microdilution method.
For assay [40], the system named is Pseudomonas aeruginosa. Description: Antibacterial activity against Pseudomonas aeruginosa ATCC 27853 assessed as inhibition of bacterial growth incubated 24 hrs by cation adjusted Mueller-Hinton broth based method.

By MIC is commonly meant the lowest concentration that inhibits growth of the organism. What is called ED50 is the dose at which the effect has come halfway, by size or by number of responders. For the compound `CC(C)CCCCC(=O)N[C@@H](CCN)C(=O)N[C@H](C(=O)N[C@@H](CCN)C(=O)N[C@H]1CCNC(=O)[C@H]([C@@H](C)O)NC(=O)[C@H](CCN)NC(=O)[C@H](CCN)NC(=O)[C@H](CC(C)C)NC(=O)[C@@H](Cc2ccccc2)NC(=O)[C@H](CCN)NC1=O)[C@@H](C)O.CC[C@H](C)CCCCC(=O)N[C@@H](CCN)C(=O)N[C@H](C(=O)N[C@@H](CCN)C(=O)N[C@H]1CCNC(=O)[C@H]([C@@H](C)O)NC(=O)[C@H](CCN)NC(=O)[C@H](CCN)NC(=O)[C@H](CC(C)C)NC(=O)[C@@H](Cc2ccccc2)NC(=O)[C@H](CCN)NC1=O)[C@@H](C)O` (X1-[Dab]T[Dab][Dab][Dab][dF]L[Dab][Dab]T; lactam 4-C), the minimal inhibitory concentration (MIC) in assay [1] is 0.25 µg/mL; in assay [2], 0.25 µg/mL; in assay [3], 1 µg/mL; in [4] it was 4 µg/mL; in assay [5] it was 1 µg/mL; in assay [6], 0.5 µg/mL. For the same compound, the MIC in [7] was 2 µg/mL; in [8], 1 µg/mL; in assay [9], 0.06 µg/mL; in assay [10], below 0.06 µg/mL; in [12] it was 0.125 µg/mL; in assay [13], 4 µg/mL. Also, the MIC in [14] was at most 0.03 µg/mL; in assay [15], 1 µg/mL; in [16], 4 µg/mL; in assay [17], 2 µg/mL; in assay [18], 4 µg/mL; in assay [19], 2 µg/mL. Moreover, the MIC in assay [20] is 1 µg/mL; in assay [21], 1 µg/mL; in assay [22] it was 1 µg/mL; in assay [23], 0.125 µg/mL; in assay [24] it was below 0.06 µg/mL; in assay [26], 2 µg/mL. The minimal inhibitory concentration (MIC) was 4 µg/mL in assay [27]; below 0.06 µg/mL in assay [28]; 2 µg/mL in [29]; 4 µg/mL in [30]; 4 µg/mL in assay [31]; 0.125 µg/mL in assay [32]. Moreover, the MIC is 1 µg/mL in [33]; 0.5 µg/mL in [34]; 0.25 µg/mL in [36]; 2 µg/mL in assay [37]; at most 0.03 µg/mL in assay [38]; 1 µg/mL in assay [39]. The survival at 4 mg/kg in assay [11] turned out to be 62.5%. Further, in assay [25], the survival at 2 mg/kg came to 37.5%. Further, in assay [35], the median effective dose (ED50) was determined as 2.7 mg/kg.
For `CO[C@H]1/C=C/O[C@@]2(C)Oc3c(C)c(O)c4c(O)c(c(/C=N/N5CCN(C)CC5)c(O)c4c3C2=O)NC(=O)/C(C)=C\C=C\[C@H](C)[C@H](O)[C@@H](C)[C@@H](O)[C@@H](C)[C@H](OC(C)=O)[C@@H]1C` [RIFAMPIN], in assay [40], the minimal inhibitory concentration (MIC) was found to be 32 µg/mL (≈ 38.9 µM).
